“And” between values parts separate entries of the source, which are not always exact repeats. Equal entries are not always repeated. ± gives the expanded uncertainty stated by the source.
What was measured:
[1] = molar heat capacity at constant pressure; details: 101.33 kPa, Small sample (50 mg) DSC
[2] = Molar enthalpy of transition or fusion; details: DSC
[3] = DTA

c1ccc2cc3cc4ccccc4cc3cc2c1 [2,3-benzanthracene]
[1]
Details	molar heat capacity at constant pressure
258.1 K, Crystal 3	218.8 ± 5.4 J/K/mol and 220.8 ± 5.4 J/K/mol and 219.3 ± 5.4 J/K/mol
268.3 K, Crystal 3	230.5 ± 5.6 J/K/mol [middle of 4 runs]
278.5 K, Crystal 3	240.6 ± 5.9 J/K/mol [middle of 4 runs]
288.7 K, Crystal 3	250.4 ± 6.1 J/K/mol [middle of 4 runs]
298.9 K, Crystal 3	260.8 ± 6.4 J/K/mol [middle of 4 runs]
299.3 K, Crystal 3	260.9 ± 11 J/K/mol
309.1 K, Crystal 3	269.7 ± 6.6 J/K/mol [middle of 4 runs]
309.3 K, Crystal 3	270.1 ± 12 J/K/mol
319.2 K, Crystal 3	280.1 ± 12 J/K/mol
319.4 K, Crystal 3	278 ± 6.8 J/K/mol [middle of 4 runs]
329.1 K, Crystal 3	286.4 ± 12 J/K/mol
329.6 K, Crystal 3	287.1 ± 7 J/K/mol [middle of 4 runs]
339.1 K, Crystal 3	295.8 ± 12 J/K/mol
339.8 K, Crystal 3	296.6 ± 7.3 J/K/mol and 295.5 ± 7.2 J/K/mol and 295.4 ± 7.2 J/K/mol
349 K, Crystal 3	307.1 ± 13 J/K/mol and 303.7 ± 13 J/K/mol
350 K, Crystal 3	304.2 ± 7.5 J/K/mol [middle of 4 runs]
359 K, Crystal 3	312.4 ± 13 J/K/mol and 314.7 ± 13 J/K/mol
368.9 K, Crystal 3	324.2 ± 14 J/K/mol and 319.7 ± 14 J/K/mol
378.9 K, Crystal 3	330.2 ± 14 J/K/mol and 332.5 ± 14 J/K/mol
388.8 K, Crystal 3	341.4 ± 14 J/K/mol
408.7 K, Crystal 2	357.6 ± 15 J/K/mol
418.6 K, Crystal 2	364.9 ± 16 J/K/mol and 365.7 ± 16 J/K/mol
428.6 K, Crystal 2	378.1 ± 16 J/K/mol
438.5 K, Crystal 2	381.3 ± 16 J/K/mol and 383.5 ± 16 J/K/mol
448.5 K, Crystal 2	391.9 ± 17 J/K/mol and 392.5 ± 17 J/K/mol
458.4 K, Crystal 2	403 ± 17 J/K/mol
468.4 K, Crystal 2	409.4 ± 17 J/K/mol and 411.7 ± 18 J/K/mol
478.3 K, Crystal 2	417.9 ± 18 J/K/mol
488.2 K, Crystal 2	426.2 ± 18 J/K/mol
498.2 K, Crystal 2	438.5 ± 19 J/K/mol
508.1 K, Crystal 2	444.3 ± 19 J/K/mol
518.1 K, Crystal 2	454.5 ± 19 J/K/mol
528 K, Crystal 2	459.9 ± 20 J/K/mol
538 K, Crystal 2	474.1 ± 20 J/K/mol
547.9 K, Crystal 2	479.3 ± 20 J/K/mol
557.8 K, Crystal 2	493.4 ± 21 J/K/mol
647.32 K, Liquid	505.18 ± 31 J/K/mol
657.27 K, Liquid	509.31 ± 31 J/K/mol
667.21 K, Liquid	513.42 ± 32 J/K/mol

Details	Molar enthalpy of transition or fusion, Crystal 1 [kJ/mol]	Molar enthalpy of transition or fusion, Crystal 2 [kJ/mol]	Molar enthalpy of transition or fusion, Crystal 3 [kJ/mol]	Normal melting temperature, Crystal 1 [°C]	Triple point temperature, Crystal 2 [K]	Triple point temperature, Crystal 3 [K]
[2]	36.8 ± 1.1	1.2 ± 0.2	0.11 ± 0.13	–	–	–
[3]	–	–	–	353.1 ± 0.4	581.9 ± 1.1	398.1 ± 2.4

c1ccc2cc3cc4cc5ccccc5cc4cc3cc2c1 [2,3:6,7-dibenzanthracene]
[1], Crystal
Details	molar heat capacity at constant pressure
258.1 K	264.5 ± 6.5 J/K/mol and 265.5 ± 6.5 J/K/mol and 267.2 ± 6.5 J/K/mol
268.3 K	275.7 ± 6.8 J/K/mol and 277.2 ± 6.8 J/K/mol and 277.1 ± 6.8 J/K/mol
278.5 K	288.9 ± 7.1 J/K/mol and 287.1 ± 7 J/K/mol and 287.5 ± 7 J/K/mol
288.7 K	299.7 ± 7.3 J/K/mol and 299.2 ± 7.3 J/K/mol
298.9 K	311.6 ± 7.6 J/K/mol and 311.5 ± 7.6 J/K/mol and 311 ± 7.6 J/K/mol
309.1 K	322.1 ± 7.9 J/K/mol and 322.4 ± 7.9 J/K/mol and 322.3 ± 7.9 J/K/mol
309.2 K	324.4 ± 14 J/K/mol
319.2 K	338.9 ± 14 J/K/mol
319.4 K	332.5 ± 8.1 J/K/mol and 333.2 ± 8.2 J/K/mol and 332.1 ± 8.1 J/K/mol
329.6 K	345.7 ± 8.5 J/K/mol and 346.5 ± 8.5 J/K/mol and 344.5 ± 8.4 J/K/mol
339.8 K	356.2 ± 8.7 J/K/mol and 354.9 ± 8.7 J/K/mol and 355.1 ± 8.7 J/K/mol
350 K	365.5 ± 9 J/K/mol and 367.2 ± 9 J/K/mol and 366 ± 9 J/K/mol
359 K	384.6 ± 16 J/K/mol
368.9 K	394.9 ± 17 J/K/mol
378.9 K	406 ± 17 J/K/mol
388.8 K	411.4 ± 18 J/K/mol
398.7 K	427.1 ± 18 J/K/mol
408.7 K	425.7 ± 18 J/K/mol
418.6 K	436.8 ± 18 J/K/mol
428.6 K	450.1 ± 19 J/K/mol
438.5 K	457.6 ± 19 J/K/mol
448.5 K	466.7 ± 20 J/K/mol
458.4 K	476.5 ± 20 J/K/mol
468.3 K	481.6 ± 20 J/K/mol
478.3 K	497.2 ± 21 J/K/mol
488.2 K	501.9 ± 21 J/K/mol
498.2 K	509.1 ± 22 J/K/mol
508.1 K	518.2 ± 22 J/K/mol
518.1 K	527.8 ± 22 J/K/mol
528 K	529.1 ± 22 J/K/mol
537.9 K	549.1 ± 23 J/K/mol
547.9 K	552.3 ± 23 J/K/mol
557.8 K	558.6 ± 24 J/K/mol
567.8 K	566.7 ± 24 J/K/mol
577.7 K	575.7 ± 24 J/K/mol
587.7 K	578.8 ± 25 J/K/mol
597.6 K	592.5 ± 25 J/K/mol

— the NIST ThermoML archive (doi:10.1021/je800382b)
